Data reported in patent US20140187771A1, “AMORPHOUS SOLID SALTS” (Gilead Sciences, Inc., priority 2011, published 2014).

Key:
[1] = Glass transition temperature (Tg) by modulated differential scanning calorimetry (mDSC); type: physicochemical; settings: for Tg (° C.) First heating / Tg (° C.) Second heating: mDSC, precipitated salts of Compound 1; for Tg (° C.) First heating: first heating cycle; for Tg (° C.) Second heating: second heating cycle (intrinsic Tg in dry state); for Tg (° C.): spray dried salts (from acetone)
Method: Modulated differential scanning calorimetry (mDSC) was used to characterize salts of the invention. Solid samples were placed in hermetically sealed aluminum pan with a pinhole. Modulation amplitude of ±0.8° C. with a period of 60 sec was applied to the sample heated at 2° C./min under dried nitrogen purge using TA instruments (New Castle, Del., USA) model 1000.
Heat-cool-heat cycles were applied to allow for moisture evaporation during first heating cycle and to erase thermal history of the sample, which allowed for the determination of the intrinsic glass transition temperature (Tg) in dry state.

[2] = Hygroscopicity at room temperature (weight gain and visual phase transition after 24 hours at controlled RH); type: physicochemical
Method: Hygroscopicity of salts of invention were measured by placing 20-50 mg of the sample in an uncapped scintillation vial. The vial was stored at ambient temperature in a Pyrex brand desiccator (VWR, International, CT). […] The relative humidity was confirmed using a digital hygrometer pen (VWR International, CT). An empty scintillation vial was also placed in the desiccator as a control. […] Visual observation of phase transition was also noted.

[3] = 55% RH, room temperature, 24 hours
[4] = 55% RH, room temperature, 24 hours, visual observation
[5] = 75% RH, room temperature, 24 hours
[6] = 75% RH, room temperature, 24 hours, visual observation

Compound | Tg (° C.) First heating [1] | Tg (° C.) Second heating [1] | % weight gain [2, 3] | Phase transition [2, 4] | % weight gain [2, 5] | Phase transition [2, 6] | Tg (° C.) [1] | Phase transition ([2]; spray dried salts, 55% RH) | Weight gain at 55% RH RH (%) ([2]; spray dried salts, 55% RH) | Phase transition ([2]; spray dried salts, 75% RH) | Weight gain at 75% (%) ([2]; spray dried salts, 75% RH)
CC(C)c1nc(CN(C)C(=O)N[C@@H](CCN2CCOCC2)C(=O)N[C@H](CC[C@H](Cc2ccccc2)NC(=O)OCc2cncs2)Cc2ccccc2)cs1.CCS(=O)(=O)O | −0.23 °C | 37 °C | 8.78% | Yes | 16.2% | Yes |  |  |  |  | 
CC(C)c1nc(CN(C)C(=O)N[C@@H](CCN2CCOCC2)C(=O)N[C@H](CC[C@H](Cc2ccccc2)NC(=O)OCc2cncs2)Cc2ccccc2)cs1.CC1(C)C2CCC1(CS(=O)(=O)O)C(=O)C2 [camphorosulfonate] | 66 °C | 66 °C | 2.99% | No | 5.9% | Yes |  |  |  |  | 
CC(C)c1nc(CN(C)C(=O)N[C@@H](CCN2CCOCC2)C(=O)N[C@H](CC[C@H](Cc2ccccc2)NC(=O)OCc2cncs2)Cc2ccccc2)cs1 [citrate] | 59 °C | 60 °C | 3.17% | No | 6.5% | Partial |  |  |  |  | 
CC(C)c1nc(CN(C)C(=O)N[C@@H](CCN2CCOCC2)C(=O)N[C@H](CC[C@H](Cc2ccccc2)NC(=O)OCc2cncs2)Cc2ccccc2)cs1.O=C(O)c1cc(O)ccc1O [gentisate] | 62 °C | 62 °C | 2.17% | No | 5.2% | No | 61 °C | no | 3.1% | partial | 5.6%
CC(C)c1nc(CN(C)C(=O)N[C@@H](CCN2CCOCC2)C(=O)N[C@H](CC[C@H](Cc2ccccc2)NC(=O)OCc2cncs2)Cc2ccccc2)cs1.O=C(O)CNC(=O)c1ccccc1 [hippurate] | 31 °C | 44 °C | 3.37% | Partial | 5.61% | Yes |  |  |  |  | 
CC(C)c1nc(CN(C)C(=O)N[C@@H](CCN2CCOCC2)C(=O)N[C@H](CC[C@H](Cc2ccccc2)NC(=O)OCc2cncs2)Cc2ccccc2)cs1.Cl [hydrochloride] | 34 °C | 59 °C | 4.32% | Partial | 6.92% | Yes | 35 °C | partial | 7.8% | yes | 9.4%
O=C(O)CCC(=O)C(=O)O [ketoglutarate] | 24 °C | 42 °C | 3.27% | Yes | 5.23% | Yes |  |  |  |  | 
CC(C)c1nc(CN(C)C(=O)N[C@@H](CCN2CCOCC2)C(=O)N[C@H](CC[C@H](Cc2ccccc2)NC(=O)OCc2cncs2)Cc2ccccc2)cs1.CC(O)C(=O)O [lactate] | 2 °C | 17 °C |  |  | 5.76% | Yes |  |  |  |  | 
CC(C)c1nc(CN(C)C(=O)N[C@@H](CCN2CCOCC2)C(=O)N[C@H](CC[C@H](Cc2ccccc2)NC(=O)OCc2cncs2)Cc2ccccc2)cs1.O=C(O)CC(=O)O [malonate] | 14 °C | 36 °C | 3.43% | Yes | 6.18% | Yes |  |  |  |  | 
CC(C)c1nc(CN(C)C(=O)N[C@@H](CCN2CCOCC2)C(=O)N[C@H](CC[C@H](Cc2ccccc2)NC(=O)OCc2cncs2)Cc2ccccc2)cs1.O=C(O)C(=O)O.O=C(O)C(=O)O [oxalate] | 34 °C | 46 °C | 4.38% | Partial | 9.36% | Yes |  |  |  |  | 
CC(C)c1nc(CN(C)C(=O)N[C@@H](CCN2CCOCC2)C(=O)N[C@H](CC[C@H](Cc2ccccc2)NC(=O)OCc2cncs2)Cc2ccccc2)cs1.O=P(O)(O)O [phosphate] | 66 °C | 69 °C | 4.52% | No | 7.9% | Partial | 92 °C | no | 4.7% | yes | 8.0%
CC(C)c1nc(CN(C)C(=O)N[C@@H](CCN2CCOCC2)C(=O)N[C@H](CC[C@H](Cc2ccccc2)NC(=O)OCc2cncs2)Cc2ccccc2)cs1.O=C1NS(=O)(=O)c2ccccc21 [saccharinate] | 37 °C | 56 °C | 1.89% | No | 4.09% | Yes | 36.4 °C | no |  | yes | 4.0%
CC(C)c1nc(CN(C)C(=O)N[C@@H](CCN2CCOCC2)C(=O)N[C@H](CC[C@H](Cc2ccccc2)NC(=O)OCc2cncs2)Cc2ccccc2)cs1.O=C(O)CCC(=O)O [succinate] | 16 °C | 35 °C | 3.95% | Yes | 6.09% | Yes |  |  |  |  | 
O=S(=O)(O)O [sulfate] | 71 °C | 71 °C |  | Partial |  | Yes |  |  |  |  | 
CC(C)c1nc(CN(C)C(=O)NC(CCN2CCOCC2)C(=O)NC(CCC(Cc2ccccc2)NC(=O)OCc2cncs2)Cc2ccccc2)cs1.O=C(O)c1ccc2ccccc2c1O (stereo not drawn) [xinafoate] | 49 °C | 51 °C | 0.29% | No | 1.97% | No | 42 °C | no | 2.6% | no | 3.3%
ascorbate | 42 °C | 60 °C | 3.23% | No | 7.56% | Yes |  |  |  |  | 
benzoate | 14 °C | 23 °C | 1.99% | Yes | 3.63% | Yes |  |  |  |  | 
dichloroacetate |  | 34 °C | 3.36% | Yes | 7.3% | Yes |  |  |  |  | 
fumarate | 37 °C | 51 °C | 2.11% | No | 6.02% | Yes | 31 °C | no | 3.2% | yes | 6.0%
maleate | 24 °C | 37 °C | 4.41% | Yes | 6.67% | Yes |  |  |  |  | 
